Tested on: ppMlc (T18/S19) levels in A7R5 cells
Assay: A7R5 in-cell ELISA (pMLC)
Assay type: cell-based, Rat
Conditions: A7R5 cells, 1 μM compound
Procedure: Determination of Compounds ROCK Inhibitory Activity in A7R5Cells.
Rat aortic smooth muscle cell line, A7R5, cells were seeded with density of 5,000 cells/well in a 96-well plates for 24 hours and subsequently treated for 90 min with testing compounds. Cells were then fixed and processed according to the In-Cell ELISA Colorimetric Detection Kit manual (Thermo Scientific).
An A7R5 in-cell Elisa assay was performed. A7R5 cells were treated with 9 points 2 fold serial dilution of compounds and ppMlc (T18/S19) levels were determined to calculate cellular IC50 values of the compounds. Compounds of the invention gave in cell IC50s under 100 nM.
In vitro activities for the compounds were measured with Z′-lyte kinase kit (ThermoFisher Scientific). The percent inhibition rate was calculated by normalizing the kinase activity value obtained with 1 μM compound treatment against DMSO control value and then applied to the formula, [1-(compound/DMSO)]×100%. IC50s were calculated using the nonlinear regression curve fit function of the GraphPad Prism software with kinase activities data measured with 9 points 2-fold serial dilution of compounds treatment. In cell pMLC IC50s were calculated with data obtained from A7R5 cell experiments. A7R5 cells were treated with 9 points 2-fold serial dilution of compounds and ppMlc (T18/S19) levels were determined to calculate cellular IC50 values of the compounds using the nonlinear regression curve fit function of the GraphPad Prism software. NIH3T3 cells stably expressing ACTA2-promoter-driven-luciferase were applied to measure ROCK compounds functional IC50s in cells. Cells were plated in 96 well plates to confluence and treated with 9 points serial dilution of compounds in combination with TGFβ1 for 24 hr. Luciferase activities were measured and compound's IC50s were calculated using the nonlinear regression curve fit function of the GraphPad Prism software.

With c1cc(Nc2ccc3[nH]ncc3c2)nc(N2CCCC(C3CCCNC3)C2)n1 (stereo not shown) [Example 86, N-(2-([3,3′-bipiperidin]-1-yl)pyrimidin-4-yl)-1H-indazol-5-amine] the “pMLC % inh A7R5 @ [conc]” value was 377.49%.

Same assay, conditions: Rattus norvegicus, A7R5, A7R5 cells, 1 μM compound; read-out: pMLC % inh A7R5 @ [conc]

Compared with O=C1CN(c2nccc(Nc3ccc4[nH]ncc4c3)n2)CCN1 [Example 17, 4-(4-((1H-indazol-5-yl)amino)pyrimidin-2-yl)piperazin-2-one], c1cc(Nc2ccc3[nH]ncc3c2)nc(N2CC3(CNC3)C2)n1 [Example 77, N-(2-(2,6-diazaspiro[3.3]heptan-2-yl)pyrimidin-4-yl)-1H-indazol-5-amine] is lower in inhibition at 1 µM: 11.2% for the first, -2.9% for the second.

Going from c1cc(Nc2ccc3[nH]ncc3c2)nc(N2CCC3(CC2)CNC3)n1 [Example 70, N-(2-(2,7-diazaspiro[3.5]nonan-7-yl)pyrimidin-4-yl)-1H-indazol-5-amine] to c1cc(Nc2ccc3[nH]ncc3c2)nc(N2CCC3(CNC3)C2)n1 [Example 71, N-(2-(2,6-diazaspiro[3.4]octan-6-yl)pyrimidin-4-yl)-1H-indazol-5-amine], the inhibition at 1 µM falls from -9.7% to -12.8%.

Compared with c1cc(Nc2ccc3[nH]ncc3c2)nc(N2CCC3(CC2)CNCCO3)n1 [Example 72, N-(2-(1-oxa-4,9-diazaspiro[5.5]undecan-9-yl)pyrimidin-4-yl)-1H-indazol-5-amine], Cc1cc(Nc2ccc3[nH]ncc3c2)nc(N2CCC3(CC2)CNCCO3)n1 [Example 123, N-(6-methyl-2-(1-oxa-4,9-diazaspiro[5.5]undecan-9-yl)pyrimidin-4-yl)-1H-indazol-5-amine] is higher in inhibition at 1 µM: -6.7% for the first, -0.8% for the second.

Going from c1cc(Nc2ccc3[nH]ncc3c2)nc(N2CCC3(CCCNC3)C2)n1 (stereo not shown) [Example 73, N-(2-(2,7-diazaspiro[4.5]decan-2-yl)pyrimidin-4-yl)-1H-indazol-5-amine] to c1cc(Nc2ccc3[nH]ncc3c2)nc(N2CCCC3(CCNC3)C2)n1 (stereo not shown) [Example 74, N-(2-(2,7-diazaspiro[4.5]decan-7-yl)pyrimidin-4-yl)-1H-indazol-5-amine], the inhibition at 1 µM rises from -4.8% to 2.7%.

First: c1cc(Nc2ccc3[nH]ncc3c2)nc(N2CC3(CCNC3)C2)n1 [Example 75, N-(2-(2,6-diazaspiro[3.4]octan-2-yl)pyrimidin-4-yl)-1H-indazol-5-amine]
Second: c1cc(Nc2ccc3[nH]ncc3c2)nc(N2CC3(CCNCC3)C2)n1 [Example 76, N-(2-(2,7-diazaspiro[3.5]nonan-2-yl)pyrimidin-4-yl)-1H-indazol-5-amine]
The inhibition at 1 µM of the first is lower: -8.7% for the first, 0% for the second.

Compared with c1cc(Nc2ccc3[nH]ncc3c2)nc(N2CC3CNCC(C3)C2)n1 [Example 79, N-(2-(3,7-diazabicyclo[3.3.1]nonan-3-yl)pyrimidin-4-yl)-1H-indazol-5-amine], c1cc(Nc2ccc3[nH]ncc3c2)nc(N2C[C@@H]3CN[C@@H]3C2)n1 [Example 81, N-(2-((1S,5S)-3,6-diazabicyclo[3.2.0]heptan-3-yl)pyrimidin-4-yl)-1H-indazol-5-amine] is higher in inhibition at 1 µM: 9.8% for the first, 13.2% for the second.

First: c1cc(Nc2ccc3[nH]ncc3c2)nc(N2CCC3NCCC3C2)n1 (stereo not shown) [Example 80, N-(2-(octahydro-5H-pyrrolo[3,2-c]pyridin-5-yl)pyrimidin-4-yl)-1H-indazol-5-amine]
Second: c1cc(Nc2ccc3[nH]ncc3c2)nc(N2CCC(C3CNC3)C2)n1 (stereo not shown) [Example 83, N-(2-(3-(azetidin-3-yl)pyrrolidin-1-yl)pyrimidin-4-yl)-1H-indazol-5-amine]
The inhibition at 1 µM of the first is higher: 11.9% for the first, 2.1% for the second.

Compared with Cc1cc(Nc2ccc3[nH]ncc3c2)nc(N2CCC3(CC2)CNC3)n1 [Example 121, N-(6-methyl-2-(2,7-diazaspiro[3.5]nonan-7-yl)pyrimidin-4-yl)-1H-indazol-5-amine], Cc1cc(Nc2ccc3[nH]ncc3c2)nc(N2CCC3(CNC3)C2)n1 [Example 122, N-(6-methyl-2-(2,6-diazaspiro[3.4]octan-6-yl)pyrimidin-4-yl)-1H-indazol-5-amine] is higher in inhibition at 1 µM: -7.3% for the first, -6.8% for the second.

Going from Cc1cc(Nc2ccc3[nH]ncc3c2)nc(N2CCC3(CCCNC3)C2)n1 (stereo not shown) [Example 124, N-(6-methyl-2-(2,7-diazaspiro[4.5]decan-2-yl)pyrimidin-4-yl)-1H-indazol-5-amine] to Cc1cc(Nc2ccc3[nH]ncc3c2)nc(N2CCCC3(CCNC3)C2)n1 (stereo not shown) [Example 125, N-(6-methyl-2-(2,7-diazaspiro[4.5]decan-7-yl)pyrimidin-4-yl)-1H-indazol-5-amine], the inhibition at 1 µM rises from -7.6% to 0.7%.

Same assay, conditions: Rattus norvegicus, A7R5, A7R5 cells, 10 μM compound; read-out: pMLC % inh A7R5 @ [conc]

Compared with c1ccc(CC2CN(c3nc4c(c(Nc5ccc6[nH]ncc6c5)n3)COC4)CCCN2)cc1 (stereo not shown) [Example 2, 2-(3-benzyl-1,4-diazepan-1-yl)-N-(1H-indazol-5-yl)-5,7-dihydrofuro[3,4-d]pyrimidin-4-amine], Cc1nc(N2CCCNC(c3ccccc3)C2)nc(Nc2ccc3[nH]ncc3c2)c1C (stereo not shown) [Example 20, N-(5,6-dimethyl-2-(3-phenyl-1,4-diazepan-1-yl)pyrimidin-4-yl)-1H-indazol-5-amine] is lower in inhibition at 10 µM: 72.4% for the first, 37.6% for the second.

Compared with Cc1cnc(N2CCCNCC2)nc1Nc1ccc2[nH]ncc2c1 [Example 3, N-(2-(1,4-diazepan-1-yl)-5-methylpyrimidin-4-yl)-1H-indazol-5-amine], Cc1cnc(N2CCCNC(C(C)C)C2)nc1Nc1ccc2[nH]ncc2c1 (stereo not shown) [Example 92, N-(2-(3-isopropyl-1,4-diazepan-1-yl)-5-methylpyrimidin-4-yl)-1H-indazol-5-amine] is lower in inhibition at 10 µM: 54.4% for the first, 19.6% for the second.

First: Cc1nc(N2CCCNC(C(C)C)C2)nc(Nc2ccc3[nH]ncc3c2)c1C (stereo not shown) [Example 16, N-(2-(3-isopropyl-1,4-diazepan-1-yl)-5,6-dimethylpyrimidin-4-yl)-1H-indazol-5-amine]
Second: Cc1nc(N2CC(C)NC(C)C2)nc(Nc2ccc3[nH]ncc3c2)c1C (stereo not shown) [Example 24, N-(2-(3,5-dimethylpiperazin-1-yl)-5,6-dimethylpyrimidin-4-yl)-1H-indazol-5-amine]
The inhibition at 10 µM of the first is higher: 32.1% for the first, 22.6% for the second.

First: Cc1nc(N2CCNC(c3ccccc3)CC2)nc(Nc2ccc3[nH]ncc3c2)c1C (stereo not shown) [Example 21, N-(5,6-dimethyl-2-(5-phenyl-1,4-diazepan-1-yl)pyrimidin-4-yl)-1H-indazol-5-amine]
Second: Cc1cnc(N2CCNC(c3ccccc3)CC2)nc1Nc1ccc2[nH]ncc2c1 (stereo not shown) [Example 94, N-(5-methyl-2-(5-phenyl-1,4-diazepan-1-yl)pyrimidin-4-yl)-1H-indazol-5-amine]
The inhibition at 10 µM of the first is higher: 21.1% for the first, 19.2% for the second.

Compared with c1cncc(-c2ccc(Nc3ccnc(N4CCNCC4)n3)cc2)c1 [Example 40, 2-(piperazin-1-yl)-N-(4-(pyridin-3-yl)phenyl)pyrimidin-4-amine], c1cc(Nc2ccc(-c3nnn[nH]3)cc2)nc(N2CCNCC2)n1 [Example 42, N-(4-(1H-tetrazol-5-yl)phenyl)-2-(piperazin-1-yl)pyrimidin-4-amine] is lower in inhibition at 10 µM: 13.4% for the first, 9.1% for the second.

First: COc1cnc(N2CCCNC(c3ccccc3)C2)nc1Nc1ccc2[nH]ncc2c1 (stereo not shown) [Example 48, N-(5-methoxy-2-(3-phenyl-1,4-diazepan-1-yl)pyrimidin-4-yl)-1H-indazol-5-amine]
Second: Cc1cnc(N2CCCNC(c3ccccc3)C2)nc1Nc1ccc2[nH]ncc2c1 (stereo not shown) [Example 103, N-(5-methyl-2-(3-phenyl-1,4-diazepan-1-yl)pyrimidin-4-yl)-1H-indazol-5-amine]
The inhibition at 10 µM of the first is higher: 51.1% for the first, 38.3% for the second.

Going from COc1cnc(N2CCNC(c3ccccc3)CC2)nc1Nc1ccc2[nH]ncc2c1 (stereo not shown) [Example 50, N-(5-methoxy-2-(5-phenyl-1,4-diazepan-1-yl)pyrimidin-4-yl)-1H-indazol-5-amine] to Cc1cc(Nc2ccc3[nH]ncc3c2)nc(N2CCNC(c3ccccc3)CC2)n1 (stereo not shown) [Example 108, N-(6-methyl-2-(5-phenyl-1,4-diazepan-1-yl)pyrimidin-4-yl)-1H-indazol-5-amine], the inhibition at 10 µM rises from 35.5% to 47.3%.

First: COc1cnc(N2CC(C)NC(C)C2)nc1Nc1ccc2[nH]ncc2c1 (stereo not shown) [Example 52, N-(2-(3,5-dimethylpiperazin-1-yl)-5-methoxypyrimidin-4-yl)-1H-indazol-5-amine]
Second: CCC1CN(c2ncc(C)c(Nc3ccc4[nH]ncc4c3)n2)CCN1 (stereo not shown) [Example 99, N-(2-(3-ethylpiperazin-1-yl)-5-methylpyrimidin-4-yl)-1H-indazol-5-amine]
The inhibition at 10 µM of the first is lower: 29.5% for the first, 29.6% for the second.

Compared with Cc1cnc(N2CCNC(C(C)C)CC2)nc1Nc1ccc2[nH]ncc2c1 (stereo not shown) [Example 93, N-(2-(5-isopropyl-1,4-diazepan-1-yl)-5-methylpyrimidin-4-yl)-1H-indazol-5-amine], Cc1cc(Nc2ccc3[nH]ncc3c2)nc(N2CCCNC(c3ccccc3)C2)n1 (stereo not shown) [Example 112, N-(6-methyl-2-(3-phenyl-1,4-diazepan-1-yl)pyrimidin-4-yl)-1H-indazol-5-amine] is higher in inhibition at 10 µM: 21.1% for the first, 56.9% for the second.

Same assay, conditions: Rattus norvegicus, A7R5, A7R5 cells, ppMlc (T18/S19)

Going from c1ccc(CC2CN(c3nc4c(c(Nc5ccc6[nH]ncc6c5)n3)COC4)CCCN2)cc1 (stereo not shown) [Example 2, 2-(3-benzyl-1,4-diazepan-1-yl)-N-(1H-indazol-5-yl)-5,7-dihydrofuro[3,4-d]pyrimidin-4-amine] to Cc1cc(Nc2ccc3[nH]ncc3c2)nc(N2CCCNC(c3ccccc3)C2)n1 (stereo not shown) [Example 112, N-(6-methyl-2-(3-phenyl-1,4-diazepan-1-yl)pyrimidin-4-yl)-1H-indazol-5-amine], the IC50 falls from 2500 nM to 1290 nM (1.9-fold).

Work on COc1cnc(N2CCCNC(c3ccccc3)C2)nc1Nc1ccc2[nH]ncc2c1 (stereo not shown) [Example 48, N-(5-methoxy-2-(3-phenyl-1,4-diazepan-1-yl)pyrimidin-4-yl)-1H-indazol-5-amine] yielded an IC50 of 2580 nM.

From patent US11613531B2, “Inhibitors of RHO associated coiled-coil containing protein kinase” (Kadmon Corporation, LLC, priority 2017, dated 2023)
